This is an account of results in patent US20130287854A1, “COMPOSITIONS AND USES” (VECTURA LIMITED, priority 2010, published 2013).

The conditions of data set [1]: human, in vivo.
Data set [2] has as its system patients with PD. To be noted: subcutaneous, cited from earlier work.
For data set [3] the following is noted: cited from earlier work.
For data set [4], the system named is Parkinson's disease patients. The settings on record: subcutaneous injection, marketing literature; cited from earlier work.
Data set [5] deals with patients with PD. The settings on record: subcutaneous, 11/16 patients; cited from earlier work.
Data set [6] deals with male erectile dysfunction patients. Nature of the data set: VR004/008 Phase IIb study, male erectile dysfunction. It counts as in vivo, human. The settings on record: a couple of patients receiving 310 μg and 430 μg doses. The protocol:
In contrast, in a recent clinical study relating to male erectile dysfunction (VR004/008 Phase IIb study), the majority of patients reported that the duration of action lasted between 2 to 10 minutes, although a couple of patients receiving 310 μg and 430 μg doses did report that the duration of action lasted over 30 minutes.=

The test system of data set [7] is Parkinson's disease patients. Nature of the data set: Therapeutic effect of apomorphine by pulmonary inhalation in a clinical trial. It counts as in vivo, human.

In the case of `CN1CCc2cccc3c2[C@H]1Cc1ccc(O)c(O)c1-3` [apomorphine], the “Tmax, fastest observed” value in data set [1] was 1 min. For the same compound, the “patients reporting an increased dyskinesia severity compared to baseline” value with patients with PD [2] (15 of 20 patients) is listed as 75%. Further, the “patients reporting signs of dyskinesia” value with patients with PD [2] (active group, FIG. 14) is recorded as 35%. Moreover, the “mean daily duration of on state with non-troublesome dyskinesia and troublesome dyskinesias” value with patients with PD [2] (active group) was 0.24 h. In addition, in the data set on patients with PD [2] (active treatment group), the “change in the mean daily period asleep from the baseline” value is 0.10 h and the “mean time to reach therapeutic effect” value is 22.2 min. In addition, the “dose linearity of pharmacokinetics” value in data set [3] (dose range of 2 to 8 mg, single subcutaneous injection into the abdominal wall, idiopathic Parkinson's disease) is recorded as “linear pharmacokinetics”. Besides, the Tmax entry in data set [3] (nasal administration) was “approximately 15 minutes”. Also, in data set [4], the “patients with improved movement within 20 minutes post dose” value is reported as 90%. Moreover, the “patients reporting incidences of dyskinesia” value with patients with PD [5] is 69%. Moreover, the duration of action result in data set [6] is “over 30 minutes”. Moreover, in data set [7] (majority of patients, after inhaling), the “onset of the therapeutic effect (conversion)” value was at most 10 min. Also, the “mean duration of the therapeutic effect” value in data set [7] (pulmonary inhalation, in a clinical trial) was found to be 75 min. For the same compound, the “conversion from the off to the on state, quickest reported” value in data set [7] (some patients, pulmonary inhalation) came out at 2 min.
